US5250679A, “Nonpeptidyl platelet aggregation inhibitors having specificity for the GPIIb III receptor” (Genentech, Inc., priority 1992, dated 1993)
Counter-ions that a name gives are not always drawn. Like-named read-outs stand apart in the source and are kept apart here.

Tests used:
GP IIb IIIa [1] = target: T1, GP IIb IIIa (Homo sapiens, UniProt P05106+P08514); experiment: Fibrinogen-GP IIb IIIa Receptor ELISA Binding Assay (Fg/IIbIIIa)
T1 construct: from tissue; host or cells: outdated human platelets
Procedure, shortened: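 Purified human platelet GP IIb IIIa binding to immobilised purified fibrinogen was run with compound at room temperature for 1 h. IC50 values were determined.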

[2] = target: T2, Human Vitronectin receptor (av b3) (Homo sapiens, UniProt P05106+P06756); experiment: Human Vitronectin-Vitronectin Receptor (av b3) ELISA Assay (Vn/VnR); assay type: binding; settings: Example 30, G # table
T2 construct: is purified from human placenta; from tissue; host or cells: human placenta
Description: Human vitronectin (Vn) is isolated from human plasma and purified by affinity chromatography by the method of Yatohgo et. al., (Cell Structure and Function 13: 281-292 [1988]).
Human vitronection receptor (VnR) is purified from human placenta by the method of Pytela et al., (Methods Enzymol., 144: 475 [1987]). Alternatively the av b3 receptor can be purified from some cell lines (e.g., human embryonic kidney 293 cells) transfected with DNA sequences for both the av and b3 subunits. The subunits are purified by employing octylglucoside extraction followed by Con-A, Heparin-Sepharose, and S-300 Chromatography.
This mouse Mab is specific for the b3 subunit of the vitronectin receptor.
Rabbit Fab 2 anti-mouse Fc fragment horse radish peroxidase conjugate (anti-MuFc HRP) is obtained from PelFreeze (cat. no. 715305-1).
Maxisorp microtiter plates are coated with 2 mg/ml human vitronectin dissolved in PBS (50 ml/well) and stored overnight at 4° C. The plates are washed two times with PBS-0.05% Tween-20 (wash buffer) and blocked by incubating with about 150 ml/well of assay buffer (1%, BSA [RIA grade or better] in 50 mM Tris-HCl, 100 mM NaCl, 1 mM MgCl2, CaCl2, MnCl2 pH 7.4) for 60 minutes. […] The blocked plates are emptied and 25 ml/well of inhibitor or standard solution is added to each well. Twenty-five ml of a 30 mg/ml solution of purified av b3 in assay buffer is pipetted into the coated plate. The final concentration of receptor in the assay well is about 15 mg/ml. The plate is incubated on a shaker for 60 minutes. Meanwhile, for each microtite plate, 6 ml buffer solution containing 1.5 mg/ml of mouse monoclonal antibody specific for b3 is prepared. To this solution is added ml of the secondary antibody, which is anti-mouse-Fc-HRP antibody conjugate. For example, for one plate, prepare 6 ml of a 1.5 mg/ml mouse Mab solution to which is added 1 ml of anti-mouse-Fc-HRP antibody stock, (this represents a 1:6000 dilution of the antibody-HRP conjugate). This mixture is allowed to incubate during the receptor-inhibitor incubation. The assay plates are washed 4 times with PBS-Tween and 50 ml/well of the antibody mixture is then pipetted into the plate for a 60 minute incubation. The plate is washed 4 times and the color reaction is developed with 50 ml/well of 0.67 mg/ml o-phenyldiamine in PBS containing 0.012% H2 O2. Alternatively, 16 mM citric acid, 50 mM Na2 PO4 at pH 5.0 can be used as a substrate buffer. The reaction is stopped with 50 ml/well 1 M H2 SO4. The plates are read at 492-405 nm and the data analyzed by four-parameter fit.

[3] = tested on: human platelet rich plasma (PRP); experiment: In Vitro Human Platelet Aggregation Assay (PA); assay type: cell-based
Procedure: In addition to the GPIIb IIIa ELISA assay, platelet aggregation assays may be performed in human platelet rich plasma (PRP). […] The blood is centrifuged at 160×g for 10 min at 22° C. and then allowed to stand for 5 min after which the PRP is decanted. Platelet poor plasma (PPP) is isolated from the remaining blood after centrifugation at 2000×g for 25 min. The platelet count of the PRP is adjusted to ca. 300,000 per microliter with PPP.
A 225 mL aliquot of PRP plus 25 mL of either a dilution of the test sample or a control (PBS) is incubated for 5 min in a Chrono-log Whole Blood Aggregometer at 25° C. An aggregating agent (collagen, 1 mg/ml; U46619, 100 ng/ml; or ADP, 8 mM) is added and the platelet aggregation recorded.
Platelet aggregation assays are performed in human platelet rich plasma (PRP). […] The blood is centrifuged at 160×g for 10 minutes at 22° C. and allowed to stand for 5 minutes after which the PRP is decanted. Platelet poor plasma (PPP) is isolated from the remaining blood after centrifugation at 2000×g for 25 minutes. The platelet count of the PRP is diluted to about 300,000 platelets per microliter with PPP.
A 225 ml aliquot of PRP plus 25 ml of either a dilution of the test inhibitor sample or a control (PBS) is incubated for 5 minutes in a Chrono-log Whole Blood Aggregometer at 25° C. An aggregating agent (collagen, 1 mg/ml; U46619, 100 ng/ml; or ADP, 17 mM) is added and the transmission is recorded.

GP IIb IIIa [4] = target: T1, GP IIb IIIa; experiment: GP IIb IIIa -von Willebrand factor (vWF) ELISA Assay (vWF/IIbIIIa); assay type: binding; settings: Example 30, G # table
Procedure: Microtiter plates are coated with 1.0 mg/ml GP IIb IIIa, prepared by the method of Fitzgerald et al., (Anal. Biochem. 151: 169-177 [1985]) and allowed to incubate overnight in coat buffer. The plates are then washed three times in wash buffer (0.05% Tween 20 in PBS) and 150 ml of assay buffer is added and allowed to incubate for 1-2 hours at room temperature on plate shaker. […] Fifty ml of 4.0 mg/ml vWF (prepared as described by Ledford et al., Thrombosis and Haemostasis, 64(4): 569-575 ]1990]) in assay buffer is then added and allowed to incubate for one hour at room temperature on plate-shaker. The plates are washed three times and the antibody mixture is added (1:5000 of mouse anti-vWF and 1:5000 of rabbit-anti-mouse-Fc-HRP, both commercially available) in assay buffer and incubated for 1 hour at room temperature on plate-shaker. […] The color change of OPD/H2 O2 reagent is read at 492 nm with a 405 nm reference wavelength on the filter photometer.

[5] = Example 29, Cmpd # 1-105, read-out: IC50 Fg/IIbI
[6] = Example 30, G # table, read-out: IC50 (μM) Fg/IIbIIIa
[7] = Homo sapiens, Platelet, heparin, read-out: PA IC50 (μM) (heparin)
[8] = Homo sapiens, Platelet, citrate, read-out: PA IC50 (μM) (citrate)
[9] = Examples 29 and 30, Cmpd # tables, read-out: IC50 (μM) Fg/IIbIIIa

T1 sequence (P08514 32-887 limits assumed): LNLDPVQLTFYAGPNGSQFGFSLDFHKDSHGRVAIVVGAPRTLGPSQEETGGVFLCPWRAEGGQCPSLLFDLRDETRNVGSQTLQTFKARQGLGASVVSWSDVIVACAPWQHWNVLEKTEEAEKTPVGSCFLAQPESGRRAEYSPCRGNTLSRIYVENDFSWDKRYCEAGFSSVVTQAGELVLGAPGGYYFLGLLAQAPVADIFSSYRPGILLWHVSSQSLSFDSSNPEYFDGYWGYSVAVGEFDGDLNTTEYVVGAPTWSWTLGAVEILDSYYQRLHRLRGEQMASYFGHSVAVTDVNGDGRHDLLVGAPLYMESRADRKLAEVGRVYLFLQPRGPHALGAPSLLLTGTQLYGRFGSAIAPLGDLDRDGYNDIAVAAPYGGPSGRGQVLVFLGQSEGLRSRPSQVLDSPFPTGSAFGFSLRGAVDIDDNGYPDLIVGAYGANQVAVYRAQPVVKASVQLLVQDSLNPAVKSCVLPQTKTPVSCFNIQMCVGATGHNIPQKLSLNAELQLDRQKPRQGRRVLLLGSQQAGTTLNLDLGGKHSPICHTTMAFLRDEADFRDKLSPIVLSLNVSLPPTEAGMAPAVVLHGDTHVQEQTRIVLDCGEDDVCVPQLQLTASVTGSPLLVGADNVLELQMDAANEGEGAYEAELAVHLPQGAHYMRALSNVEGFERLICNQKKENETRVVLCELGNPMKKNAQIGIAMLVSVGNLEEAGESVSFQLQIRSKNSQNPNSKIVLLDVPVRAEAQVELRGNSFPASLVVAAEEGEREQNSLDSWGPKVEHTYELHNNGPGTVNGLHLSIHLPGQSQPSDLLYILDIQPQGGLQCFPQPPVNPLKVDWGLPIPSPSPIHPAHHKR
T1 sequence (P08514 891-1039 partner limits assumed): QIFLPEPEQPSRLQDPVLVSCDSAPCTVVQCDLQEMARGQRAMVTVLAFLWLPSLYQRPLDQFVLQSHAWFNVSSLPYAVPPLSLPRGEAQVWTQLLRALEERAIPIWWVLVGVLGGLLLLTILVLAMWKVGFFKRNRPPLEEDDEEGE
T1 sequence (P05106 27-788): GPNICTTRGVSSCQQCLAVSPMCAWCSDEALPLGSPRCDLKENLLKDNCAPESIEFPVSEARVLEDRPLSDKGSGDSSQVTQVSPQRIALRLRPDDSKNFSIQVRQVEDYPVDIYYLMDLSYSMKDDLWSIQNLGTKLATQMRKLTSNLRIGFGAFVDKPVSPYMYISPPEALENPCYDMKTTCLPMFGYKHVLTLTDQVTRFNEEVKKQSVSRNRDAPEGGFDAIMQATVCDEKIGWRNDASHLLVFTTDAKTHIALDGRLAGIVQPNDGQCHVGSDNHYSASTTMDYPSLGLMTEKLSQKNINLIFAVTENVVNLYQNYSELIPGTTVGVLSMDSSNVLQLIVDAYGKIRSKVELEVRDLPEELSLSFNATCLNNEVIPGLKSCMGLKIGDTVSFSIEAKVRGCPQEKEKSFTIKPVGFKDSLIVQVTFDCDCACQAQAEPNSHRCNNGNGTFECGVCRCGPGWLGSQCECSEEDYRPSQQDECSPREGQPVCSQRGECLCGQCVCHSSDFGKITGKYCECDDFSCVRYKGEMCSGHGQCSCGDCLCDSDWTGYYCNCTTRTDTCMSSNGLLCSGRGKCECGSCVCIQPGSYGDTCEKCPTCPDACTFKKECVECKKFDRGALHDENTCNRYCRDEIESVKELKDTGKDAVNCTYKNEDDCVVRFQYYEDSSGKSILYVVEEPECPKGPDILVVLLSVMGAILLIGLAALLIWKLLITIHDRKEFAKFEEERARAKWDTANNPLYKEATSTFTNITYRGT
T2 sequence (P06756 31-889 limits assumed): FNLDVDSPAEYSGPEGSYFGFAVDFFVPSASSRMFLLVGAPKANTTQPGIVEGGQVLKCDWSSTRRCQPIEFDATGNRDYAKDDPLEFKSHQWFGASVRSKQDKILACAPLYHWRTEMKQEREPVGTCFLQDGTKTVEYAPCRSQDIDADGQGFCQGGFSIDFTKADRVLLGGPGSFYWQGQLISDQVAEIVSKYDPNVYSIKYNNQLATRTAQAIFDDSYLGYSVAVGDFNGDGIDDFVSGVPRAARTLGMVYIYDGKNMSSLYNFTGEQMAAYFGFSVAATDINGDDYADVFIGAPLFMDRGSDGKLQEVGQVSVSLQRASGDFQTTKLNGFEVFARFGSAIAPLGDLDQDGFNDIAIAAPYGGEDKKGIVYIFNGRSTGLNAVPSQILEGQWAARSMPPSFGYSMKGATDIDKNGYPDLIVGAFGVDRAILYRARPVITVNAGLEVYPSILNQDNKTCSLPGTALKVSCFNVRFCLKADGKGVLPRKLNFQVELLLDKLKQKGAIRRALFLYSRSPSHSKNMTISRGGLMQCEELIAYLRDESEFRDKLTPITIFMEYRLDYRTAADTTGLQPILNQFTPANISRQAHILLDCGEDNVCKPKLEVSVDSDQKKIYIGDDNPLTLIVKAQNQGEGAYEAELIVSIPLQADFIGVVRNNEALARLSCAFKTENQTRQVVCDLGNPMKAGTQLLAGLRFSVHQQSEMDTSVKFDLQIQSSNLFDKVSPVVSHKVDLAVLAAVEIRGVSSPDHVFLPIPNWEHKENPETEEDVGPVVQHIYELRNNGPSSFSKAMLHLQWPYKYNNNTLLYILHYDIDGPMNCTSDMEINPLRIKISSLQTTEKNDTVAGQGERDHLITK
T2 sequence (P06756 891-1048 partner limits assumed): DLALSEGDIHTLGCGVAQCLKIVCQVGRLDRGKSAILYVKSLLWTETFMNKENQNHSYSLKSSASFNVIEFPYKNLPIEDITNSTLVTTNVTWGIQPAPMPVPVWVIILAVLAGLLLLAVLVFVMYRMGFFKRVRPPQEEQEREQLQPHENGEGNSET
T2 sequence (P05106 27-788): as the sequence (P05106 27-788) above

IC50 (GP IIb IIIa [4]) [µM]	Compound	IC50 (GP IIb IIIa [1]; [5]) [µM]	IC50 (GP IIb IIIa [1]; [6]) [µM]	IC50 [2] [µM]	IC50 [3, 7] [µM]	IC50 [3, 8] [µM]	IC50 ([3]; heparin, read-out: PA IC50 (μM) (heparin)) [µM]	IC50 (GP IIb IIIa [1]; [9]) [µM]
	NCCCCC#Cc1ccc2c(c1)C(=O)N(CCC(=O)O)CC(=O)N2Cc1cccc([N+](=O)[O-])c1 [Cmpd 55, 1-(3-nitrobenzyl)-4-(2-carboxyethyl)-7-(6-amino-1-hexynyl)-3,4-dihydro-1H-1,4-benzodiazepine-2,5-dione trifuroacetate]	0.008	0.008	> 10	2.2			
	NCCCCCc1ccc2c(c1)C(=O)N(CCC(=O)O)CC(=O)N2C(c1ccccc1)c1ccccc1 [Cmpd 68, 1-(diphenylmethyl)-4-(2-carboxyethyl)-7-(5-aminopentyl)-3,4-dihydro-1H-1,4-benzodiazepine-2,5-dione trifluoroacetate]	0.02	0.028	> 10	3.4	1.66		
	N=C(N)NCCCCCc1ccc2c(c1)C(=O)N(CCC(=O)O)CC(=O)N2C(c1ccccc1)c1ccccc1 [Cmpd 69, 1-(diphenylmethyl)-4-(2-carboxyethyl)-7-(5-guanidinopentyl)-3,4-dihydro-1H-1,4-benxodiazepine-2,5-dione trifluoroacetate]	0.082	0.082	> 10	3.9	2.09		
	CN1C(=O)CN(CCC(=O)O)C(=O)c2cc(C#Cc3ccc(CNC(=N)N)cc3)ccc21 [Cmpd 44, 1-(methyl)-4-(2-carboxyethyl)-7-[4-(guanidinomethyl)phenyl]ethynyl-3,4-dihydro-1H-1,4-benzodiazepine-2,5-dione trifluroacetate]	0.012	0.012	> 10	14.3	8.8		
	NCCCCC#Cc1ccc2c(c1)C(=O)N(CCC(=O)O)CC(=O)N2Cc1ccc(Cl)cc1 [Cmpd 60]	0.014	0.014	> 10		2.12		
	CN1C(=O)CN(CCC(=O)O)C(=O)c2cc(C#CCCCNC(=N)N)ccc21 [Cmpd 34, 1-methyl-4-(2-carboxyethyl)-7-(5-guanidino-1-pentynyl)-3,4-dihydro-1H-1,4-benzodiazepine-2,5-dione trifluroacetate]	0.0036	0.0036	> 10	7.5	3.1		
	NCCCCCCCc1ccc2c(c1)C(=O)N(CCC(=O)O)CC(=O)N2Cc1ccc(Cl)cc1 [Cmpd 66]	0.026	0.026	> 10		3.88		
	NCCCC#Cc1ccc2c(c1)C(=O)N(CCC(=O)O)CC(=O)N2Cc1cccc([N+](=O)[O-])c1 [Cmpd 35, 1-(3-nitrobenzyl)-4-(2-carboxyethyl)-7-(5-amino-1-pentynyl)-3,4-dihydro-1H-1,4-benzodiazepine-2,5-dione trifluroacetate]	0.013	0.013	> 10	8	2.4	9.53	
	NCCCCCCc1ccc2c(c1)C(=O)N(CCC(=O)O)CC(=O)N2Cc1ccc(Cl)cc1 [Cmpd 64, 1-(4-chlorophenyl)methyl-4-(2-carboxyethyl)-7-(6-aminohexyl)-3,4-dihydro-1H-1,4-benzodiazapine-2,5-dione]	0.014	0.014	> 10	4.76	1.2		
	N=C(N)NCCCCCCc1ccc2c(c1)C(=O)N(CCC(=O)O)CC(=O)N2Cc1cccc(NC(=O)CNC(=N)N)c1 [Cmpd 109]		0.017	> 10		1.19		0.017
0.096	CN1C(=O)CN(CCC(=O)O)C(=O)c2cc(CCCCNC(=N)N)ccc21 [Cmpd 20]	0.25	0.245	> 10				
	NCCCCCCc1ccc2c(c1)C(=O)N(CCC(=O)O)CC(=O)N2C(c1ccccc1)c1ccccc1 [Cmpd 72, 1-(diphenylmethyl)-4-(2-carboxyethyl)-7-(6-aminohexyl)-3,4-dihydro-1H-1,4-benzodiazepine-2,5-dione trifluoroacetate]	0.022	0.022	> 10	1.1	0.46		
	NCCCCCCc1ccc2c(c1)C(=O)N(CCC(=O)O)CC(=O)N2Cc1cccc(NC(=O)CN)c1 [Cmpd 108]		0.012	> 10	1.09	0.55		0.012
	N=C(N)NCCCCCc1ccc2c(c1)C(=O)N(CCC(=O)O)CC(=O)N2Cc1ccc(Cl)cc1 [Cmpd 63]	0.011	0.011	> 10		2.55		
	N=C(N)NCCCC#Cc1ccc2c(c1)C(=O)N(CCC(=O)O)CC(=O)N2Cc1cccc(NC(=O)CNC(=N)N)c1 [Cmpd 107]		0.018	> 10	0.89	0.61		0.018
	N=C(N)NCCCc1ccc2c(c1)C(=O)N(CCC(=O)O)CC(=O)N2 [Cmpd 2]	0.714	0.714	> 10		> 5		
	CN1C(=O)CN(CCC(=O)O)C(=O)c2cc(C#CCCNC(=N)N)ccc21 [Cmpd 22]	0.14	0.14	> 10		8.96		
	CN1C(=O)CN(CCC(=O)O)C(=O)c2cc(C#Cc3ccc(CN)cc3)ccc21 [Cmpd 43, 1-(methyl)-4-(2-carboxyethyl)-7-[4-(aminomethyl)phenyl]ethynyl-3,4-dihydro-1H-1,4-benzodiazepine-2,5-dione trifluroacetate]	0.012	0.012	> 10	3.34	1.7		
0.024	CN1C(=O)CN(CCC(=O)O)C(=O)c2cc(CCCCCNC(=N)N)ccc21 [Cmpd 28, 1-methyl-4-(2-carboxyethyl)-7-(5-guanidino-1-pentyl)-3,4-dihydro-1H-1,4-benzodiazepine-2,5-dione trifluroacetate]	0.055	0.055	> 10				
	N=C(N)NCCCCC#Cc1ccc2c(c1)C(=O)N(CCC(=O)O)CC(=O)N2Cc1cccc([N+](=O)[O-])c1 [Cmpd 56, 1-(3-nitrobenzyl)-4-(2-carboxyethyl)-7-(6-guanidino-1-hexynyl)-3,4-dihydro-1H-1,4-benzodiazepine-2,5-dione trifluroacetate]	0.006	0.006	> 10	15			
	CN1C(=O)CN(CCC(=O)O)C(=O)c2cc(C#CCCCCNC(=N)N)ccc21 [Cmpd 42, 1-(methyl)-4-(2-carboxyethyl)-7-(6-guanidino-1-hexynyl)-3,4-dihydro-1H-1,4-benzodiazepine-2,5-dione trifluroacetate]	0.06	0.009	> 10		2.66		
	N=C(N)NCCCC#Cc1ccc2c(c1)C(=O)N(CCC(=O)O)CC(=O)N2C(c1ccccc1)c1ccccc1 [Cmpd 71]	0.008	0.008	> 10	0.95	0.34		
	NCCCCCCc1ccc2c(c1)C(=O)N(CCC(=O)O)CC(=O)N2Cc1cccc(NC(=O)CCN)c1 [Cmpd 110, 1-[3-(3-aminopropionyl)aminophenyl]methyl-4-(2-carboxyethyl)-7-(6-aminohexyl)-3,4-dihydro-1H-1,4-benzodiazapine-2,5-dione bistrifluoroacetate]		0.008	> 10	0.83	0.28		0.008
	N=C(N)NCCCCCCc1ccc2c(c1)C(=O)N(CCC(=O)O)CC(=O)N2Cc1cccc(NC(=O)CCNC(=N)N)c1 [Cmpd 111]		0.01	> 10	1.49	1.14		0.01
